In patent US12358859B2, “Series of compounds for treatment of skin diseases and other conditions” (Unigen, Inc., priority 2018, dated 2025):
In brackets after ≈: the same amount, converted by molar mass. Like-named read-outs stand apart in the source and are kept apart here.

Assays:
COX-1 = molecular target: T1, COX-1 (Ovis aries, UniProt P05979); experiment: COX-1 enzymatic inhibition assay; format: biochemical; conditions: for IC50: read-out: Anti-inflammatory (IC50) COX-1
T1 construct: purchased Cayman Chemical 701050
T1 sequence (P05979 25-600): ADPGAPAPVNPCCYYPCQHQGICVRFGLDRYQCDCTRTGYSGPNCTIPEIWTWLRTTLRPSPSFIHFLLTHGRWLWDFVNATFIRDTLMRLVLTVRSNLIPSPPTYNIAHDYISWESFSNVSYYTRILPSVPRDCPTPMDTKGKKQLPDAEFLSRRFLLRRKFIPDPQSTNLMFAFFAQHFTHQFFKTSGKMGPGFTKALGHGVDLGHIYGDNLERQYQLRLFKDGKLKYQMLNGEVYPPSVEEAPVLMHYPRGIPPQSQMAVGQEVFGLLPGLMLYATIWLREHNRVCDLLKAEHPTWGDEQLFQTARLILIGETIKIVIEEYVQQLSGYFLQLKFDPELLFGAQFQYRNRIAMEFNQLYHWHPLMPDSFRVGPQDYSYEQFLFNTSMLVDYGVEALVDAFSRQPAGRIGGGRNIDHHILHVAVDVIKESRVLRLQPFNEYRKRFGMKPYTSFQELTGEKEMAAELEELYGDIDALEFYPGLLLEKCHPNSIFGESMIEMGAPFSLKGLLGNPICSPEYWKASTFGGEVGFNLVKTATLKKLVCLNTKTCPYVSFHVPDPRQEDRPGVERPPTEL
Experimental: (§1) In order to screen for compounds that inhibited COX-1 and Cox-2 activity, enzymatic inhibition assay kits were purchased from Cayman Chemical (cat #701050). Briefly, the compound being examined was treated against a fixed amount of COX-1 and COX-2 enzymes. A cleavable, peroxide chromophore was included in the assay to visualize the peroxidase activity of each enzyme in presence of arachidonic acid as […]. Typically, assays were performed in 96-well format. Each inhibitor, taken from a 1 M stock solution in 100% DMSO, was tested in duplicate at room temperature using the following range of concentrations: 1.9, 3.9, 7.8, 15.6, 31.2, 62.5, 125, 250, 500, and 1000 μM. To each well, 150 μL of Assay Buffer was added along with 10 μL of Hemin, 10 μL of inhibitor diluted in DMSO and 10 μL of either COX-1 or COX-2 enzyme. The compounds were incubated for 5 minutes at room temperature, followed by the addition of 20 μL of Colormietric Substrate solution and 20 μL of arachidonic acid solution to initiate the reaction. The plate was mixed and incubated for 2 minutes before reading the absorbance at 590 nm. The inhibitor concentration vs. % of inhibition was plotted and the IC50 determined.

[1] = test system: Propionibacterium acnes (ATCC11827); experiment: P-acne MIC/MBC test; format: cell-based; conditions: for MIC: lowest level that inhibits growth, turbidity, 1 day
Experimental: The anti-microbial activity of the tested compounds were evaluated using published methods (Modugno e. al. (1994) Antimicrobial agents and Chemotherapy 38: 2362-2368; […] et. al. (1973) Antimicrobial agents and Chemotherapy 3: 40-48. Propionibacterium acnes (ATCC11827) was cultured for 20 hours at 37° C. in Reinforced Clostridal medium. The test article and positive control were dissolved in 1% DMSO with an incubation volume of 1 mL. The time of assessment was 1 day. Measurement of turbidity was used as the method of quantification. The compounds were tested in duplicate at concentrations of 250 ug/mL, 125 ug/mL, 62 ug/mL, 31 ug/mL, 16 ug/mL, 8 ug/mL, 4 ug/mL, 2 ug/mL relative to positive control ampicillin at 0.1 ug/mL.

COX-2 = molecular target: T2, COX-2 (Homo sapiens, UniProt P35354); experiment: COX-2 enzymatic inhibition assay; format: biochemical; conditions: for IC50: read-out: Anti-inflammatory (IC50) COX-2
T2 construct: purchased Cayman Chemical 701050
T2 sequence (P35354 18-604): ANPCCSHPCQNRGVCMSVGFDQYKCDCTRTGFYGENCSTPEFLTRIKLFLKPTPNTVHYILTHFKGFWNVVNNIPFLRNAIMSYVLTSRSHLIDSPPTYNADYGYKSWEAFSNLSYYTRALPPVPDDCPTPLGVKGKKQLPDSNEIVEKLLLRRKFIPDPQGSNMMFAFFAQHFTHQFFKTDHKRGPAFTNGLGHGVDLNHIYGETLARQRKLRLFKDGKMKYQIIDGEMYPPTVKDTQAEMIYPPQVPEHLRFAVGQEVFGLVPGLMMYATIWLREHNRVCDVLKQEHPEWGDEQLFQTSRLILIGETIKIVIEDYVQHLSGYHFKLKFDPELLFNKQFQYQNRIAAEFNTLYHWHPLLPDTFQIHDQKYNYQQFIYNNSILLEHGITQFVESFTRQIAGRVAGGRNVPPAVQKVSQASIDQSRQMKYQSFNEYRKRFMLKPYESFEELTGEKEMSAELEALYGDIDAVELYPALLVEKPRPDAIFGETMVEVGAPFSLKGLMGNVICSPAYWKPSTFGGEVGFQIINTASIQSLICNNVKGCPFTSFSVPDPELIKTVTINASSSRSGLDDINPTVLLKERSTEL
Experimental: as §1

[2] = Cutibacterium acnes, ATCC11827, 24 h, read-out: MIC
[3] = Cutibacterium acnes, ATCC11827, lowest concentration required to kill the bacterium, read-out: MBC

SMILES	IC50 (COX-1) [µM]	MIC [1, 2] [µg/mL]	MBC [1, 3] [µg/mL]	MBC ([1]; lowest concentration required to kill the bacterium) [ppm]	MIC [1] [ppm]	Anti-inflammatory (IC50) COX-2 (COX-2)	IC50 (COX-2) [µM]	Anti-inflammatory (IC50) COX-1 (COX-1)
CC(C)=CCCC(C)=Cc1ccc(O)cc1 (mixture of isomers) [Compound 1, (E/Z)-4-(2,6-dimethylhepta-1,5-dienyl)phenol]	122	< 3.9	< 3.9	<3.9	<3.9	Not active		
CC(C)=CCC/C(C)=C/c1cc(O)cc(O)c1 [Compound 4, (E/Z)-5-(2,6-dimethylhepta-1,5-dienyl)benzene-1,3-diol]	64	< 3.9	< 3.9				245	
CC(C)=CCCC(C)/C=C/c1ccc(O)cc1 (stereo not shown) [Compound 5, (E)-4-(3,7-dimethylocta-1,6-dienyl)phenol]		< 3.9					72	No Inhibition
CC(C)=CCCC(C)/C=C/c1ccc(O)cc1O (stereo not shown) [Compound 6, (E)-4-(3,7-dimethylocta-1,6-dienyl) benzene-1,3-diol]	74	3.9 (≈ 15.8 µM)	3.9 to 31.3 (≈ 15.8 to 127 µM)				164	
CC(C)=CCCC(C)/C=C/c1cc(O)cc(O)c1 (stereo not shown) [Compound 7, (E)-5-(3,7-dimethylocta-1,6-dienyl) benzene-1,3-diol]	25	7.8 (≈ 31.7 µM)	7.8 to 31.3 (≈ 31.7 to 127 µM)				135	
CC(C)=CCCC(C)C/C=C\c1cc(O)cc(O)c1 (stereo not shown) [Compound 15, (Z)-5-(4,8-dimethylnona-1,7-dienyl) benzene-1,3-diol]	122	< 3.9	< 3.9			No Inhibition		
